The record followed here is patent US12533417B2, “L-DOPA and/or DOPA decarboxylse inhibitors conjugated to sugar for the treatment of dopamine-responsive disorders” (B. G. Negev Technologies and Applications Ltd., at …, priority 2018, dated 2026).

A short description of data set [1]: Pharmacokinetic of L-DOPA following intravenous administration of L-DOPA and L-DOPAM-2 to mice. The data set is classed as in vivo. As to conditions: for L-DOPA in the plasma: equivalent to 80 mg/kg L-DOPA, 4 and 8 hours after injection, no DOPA decarboxylase inhibitor. Here is the method:
In order to analyze the stability of DOPAM-2 in vivo, mice were injected intravenously with either L-DOPAM-2 or L-DOPA, where in either case, an equimolar dose of L-DOPA was administered (equivalent to 80 mg/kg L-DOPA). Mice were sacrificed 30, 60, 120, 240, and 480 minutes after the injection of the tested drug, blood was collected and plasma obtained by centrifugation. L-DOPA concentration was determined by LC-MS. 3 mice were tested per each time point, and each point on the graph represents mean±SEM.

Data set [2] is described as follows: Release of L-DOPA from L-DOPAM-1 and L-DOPAM-4 in human serum in vitro (Example 5). Format: in vitro ADME. As to conditions: 37° C., L-DOPA concentration by LC-MS (FIG. 13). Here is the method: (§1) The stability of one molecule of L-DOPA and one Mannitol (L-DOPAM-1, M.W. 361) in serum was evaluated according to the following procedure: • 1. A solution of 2 mg L-DOPAM in lml of serum was prepared; • 2. A 200 μl aliquot was immediately withdrawn from that solution; • 3. 180 μl of TCA (trichloroacetic acid) 0.6N solution was added; • 4. The obtained mixture was centrifuged (5,000 rpm, 15 min., 40° C.); • 5. The supernatant was filtrated through 0.22 μm filter; • 6. The filtrate was diluted 20 times and injected into Liquid chromatography-mass spectrometry (LC-MS) (column: LUNA 3u C18 (2) 100A; 150×1.0 mm). The eluents were A=Acetonitrile, B=H2O+0.1% Acetic Acid. The following LC gradient was used: […]
The stability of one molecule of L-DOPA and one of mannitol (L-DOPAM-1), and of four molecules of L-DOPA and one of mannitol (L-DOPAM-4) in serum was evaluated by the method disclosed in Example 4. L-DOPAM-1 and L-DOPAM-4 were added into human serum and incubated at 37° C. Samples were taken at various times after the addition of the drugs to the serum and L-DOPA concentration was determined by LC-MS.

Data set [3] can be described thus: L-DOPA concentration in human serum after adding DOPAM, HPLC-MS with internal standard. The data set is classed as in vitro ADME. Here is the method:
HPLC-MS area under the curve were examined after addition of various L-DOPA concentrations to serum (FIG. 10). […] DOPAM was added to human serum in vitro, and L-DOPA concentrations in serum at various timepoints were determined by HPLC-MS and quantified using an internal standard. DOPAM released L-DOPA continuously over at least 24 hours (FIG. 12). The concentration of L-DOPA in serum increased in a linear fashion during the first 6 hours after adding DOPAM to the serum, after which L-DOPA concentration continued to increase through the final time point examined in this experiment (24 hours after DOPAM addition; FIG. 12).

Data set [4] in a line: Stability of L-DOPAM in serum, LC-MS peak areas (Example 4). The data set is classed as in vitro ADME, human. As to conditions: for Area L-DOPA (LC-MS peak area) / Area L-DOPAM (LC-MS peak area) / Area Mannitol (LC-MS peak area): L-DOPAM 2 mg/ml in serum, 36° C. Here is the method: as §1
The L-DOPAM solution in serum was stored at 36° C. Steps 2-6 were repeated after 2, 4, 23 and 46.5 hours.
The areas of the L-DOPAM, L-DOPA and Mannitol peaks were determined by extraction of only the ions of interest (FIGS. 3-7). The L-DOPA metabolite dopamine was not detected.
In order to semi-quantitatively determine the stability of L-DOPAM, the ratio of the peak areas of L-DOPA versus L-DOPAM and Mannitol versus L-DOPAM was calculated. An increase of the ratio of L-DOPA and Mannitol over time indicates the breakdown of L-DOPAM in serum.

With `NC(Cc1ccc(O)c(O)c1)C(=O)OCC(OC(=O)C(N)Cc1ccc(O)c(O)c1)C(O)C(O)C(O)CO` (centres unmarked) [DOPAM-2], the “L-DOPA in the plasma” value in data set [1] was “significant levels of L-DOPA”. In data set [1] (equivalent to 80 mg/kg L-DOPA, 60, 120, 240, and 480 minutes after injection), the “plasma concentrations of L-DOPA compared with mice injected with L-DOPA” value is on record as “higher”.

Turning to `NC(Cc1ccc(O)c(O)c1)C(=O)OC(CO)C(O)C(O)C(O)CO` [L-DOPAM-1], in data set [2], the “course of levels after the increase” value is “gradual decrease at 24 and 48 hours”. The “time up to which levels increased” value in data set [2] is 8 h. Besides, the “time over which L-DOPA was released continuously” value in data set [3] (DOPAM added to human serum in vitro, 37° C. (FIG. 12)) was “at least 24 hours”. The “period of linear increase of L-DOPA concentration in serum” value in data set [3] (after adding DOPAM to human serum (FIG. 12)) is 6 h. The “time L-DOPA present in serum” value in data set [3] was “at least 24 hours”. In addition, in data set [4] (46 h after exposure of L-DOPAM to serum), the “L-DOPAM detection in serum” value is reported as “still detected”. Besides, the “Area L-DOPA (LC-MS peak area)” value in data set [4] (time 0 h) is on record as 1019288083; in data set [4] (time 2 h) it was 2345301782; in data set [4] (time 4 h), 2632498093; in data set [4] (time 23 h), 1539342894; in data set [4] (time 46.5 h) it was 26308871. Besides, the “Area L-DOPAM (LC-MS peak area)” value in data set [4] (time 0 h) stood at 4065363001; in data set [4] (time 2 h), 3292402130; in data set [4] (time 4 h) it was 2146859775; in data set [4] (time 23 h), 498391022; in data set [4] (time 46.5 h), 460814075. Besides, the “Area Mannitol (LC-MS peak area)” value in data set [4] (time 0 h) turned out to be 60908307; in data set [4] (time 2 h), 65437168; in data set [4] (time 4 h) it was 97930402; in data set [4] (time 23 h), 73274763; in data set [4] (time 46.5 h), 83932712. For the same molecule, in data set [4] (L-DOPAM in serum (FIG. 9)), the Mannitol levels result is recorded as “increased over time”. For the same molecule, the “L-DOPA metabolite dopamine detected” value in data set [4] (L-DOPAM in serum, 0-46.5 h, LC-MS) was “not detected”. Further, the “Ratio L-DOPA/L-DOPAM (peak areas)” value in data set [4] (L-DOPAM in serum, time 0 h) was determined as 0.251; in data set [4] (L-DOPAM in serum, time 2 h), 0.712; in data set [4] (L-DOPAM in serum, time 4 h), 1.226; in data set [4] (L-DOPAM in serum, time 23 h), 3.089; in data set [4] (L-DOPAM in serum, time 46.5 h), 0.057. Further, the “Ratio Mannitol/L-DOPAM (peak areas)” value in data set [4] (L-DOPAM in serum, time 0 h) was 0.015; in data set [4] (L-DOPAM in serum, time 2 h), 0.020; in data set [4] (L-DOPAM in serum, time 4 h), 0.046; in data set [4] (L-DOPAM in serum, time 23 h), 0.147; in data set [4] (L-DOPAM in serum, time 46.5 h) it was 0.182. For the same molecule, the “time up to which L-DOPA levels increased” value in data set [4] (L-DOPAM in serum, sharp decrease at the 46 h time point (FIG. 8)) turned out to be 23 h.

On to `N[C@@H](Cc1ccc(O)c(O)c1)C(=O)O` [L-DOPA], for which, in data set [1], the “L-DOPA in the plasma” value is given as “no L-DOPA was detected”. Further, in data set [3], the “time L-DOPA present in serum” value was “about 2 hours”.

For `NC(Cc1ccc(O)c(O)c1)C(=O)OCC(OC(=O)C(N)Cc1ccc(O)c(O)c1)C(O)C(O)C(COC(=O)C(N)Cc1ccc(O)c(O)c1)OC(=O)C(N)Cc1ccc(O)c(O)c1` [L-DOPAM-4], in data set [2], the “course of levels after the increase” value is given as “decreased slightly through the final time point examined after 72 hours”, the “time up to which levels increased” value was 24 h and the “time up to which levels increased linearly” value was 5 h.
